Laboratory results: US8173808B2, “Substituted naphthalenyl-pyrimidine compounds” (ArQule, Inc., priority 2009, dated 2012)

Key:
[1] = test system: DLD-1; test: MTS assay, DLD-1; assay type: cell-based; settings: Homo sapiens, 72 hours, 1 Percent FBS
Method: (§1) Cells were maintained at 37° C., 5% CO2 in DMEM media supplemented with 1% fetal bovine serum, penicillin/streptomycin and fungizone (Invitrogen). Cells were seeded into 96-well tissue culture plates at 3000 per well and cultured at 37° C. for 18 hours. Test compounds were dissolved and diluted to 300× in DMSO then diluted 1:40 in DMEM. Cells were incubated with test compounds for 72 hours followed by incubation with tetrazolium compound (3-(4,5-dimethylthiazol-2-yl)-5-(3-carboxymethoxyphenyl)-2-(4-sulfophenyl)-2H-tetrazolium, inner salt; MTS) and the electron coupling reagent, phenazine methosulfate (PMS) for 4 hours. […] The ability of compounds to inhibit cell growth in this assay is correlated with the reduction of dehydrogenase enzyme activity found in metabolically active cells. The measurement of the absorbance of the formazan was assessed using a Victor (Perkin Elmer) microplate reader at 492 nm. The calculated IC50 value is the concentration of the test compound that causes a 50% decrease in the absorbance.

[2] = test system: MDA-MB-231; test: MTS assay, MDA-MB-231; assay type: cell-based; settings: Homo sapiens, 72 hours, 1 Percent FBS
Method: as §1

Row | SMILES | inhibition at 10 µM [1] | inhibition at 10 µM [2]
1 | COc1ccc2cc(-c3ccnc(NC4CCN(C)CC4)n3)cc(N3CCOCC3)c2c1 [Compound 7, 4-(6-methoxy-4-morpholin-4-yl-2-naphthyl)-N-(1-methylpiperidin-4-yl)pyrimidin-2-amine] | 68% | 62%
2 | COc1ccc2cc(-c3ccnc(NCc4ccc(OC)c(OC)c4)n3)cc(N3CCOCC3)c2c1 [Compound 9, N-(3,4-dimethoxybenzyl)-4-(6-methoxy-4-morpholin-4-yl-2-naphthyl)pyrimidin-2-amine] | 99% | 82%
3 | CCN1CCCC(Nc2nccc(-c3cc(N4CCOCC4)c4cc(OC)ccc4c3)n2)C1 (stereo not drawn) [Compound 14, N-(1-ethylpiperidin-3-yl)-4-(6-methoxy-4-morpholin-4-yl-2-naphthyl)pyrimidin-2-amine] | 98% | 99%
4 | COc1ccc2cc(-c3ccnc(NCc4cncn4C)n3)cc(N3CCOCC3)c2c1 [Compound 16, 4-(6-methoxy-4-morpholin-4-yl-2-naphthyl)-N-[(1-methyl-1H-imidazol-5-yl)methyl]pyrimidin-2-amine] | 98% | 96%
5 | COc1ccc2cc(-c3ccnc(NCCc4ccc(OC)c(OC)c4)n3)cc(N3CCOCC3)c2c1 [Compound 18, N-[2-(3,4-dimethoxyphenyl)ethyl]-4-(6-methoxy-4-morpholin-4-yl-2-naphthyl)pyrimidin-2-amine] | 88% | 31%
6 | COc1ccc2cc(-c3ccnc(NCCc4cccnc4)n3)cc(N3CCOCC3)c2c1 [Compound 21, 4-(6-methoxy-4-morpholin-4-yl-2-naphthyl)-N-(2-pyridin-3-ylethyl)pyrimidin-2-amine] | 97% | 99%
7 | COCCNc1nccc(-c2cc(N3CCOCC3)c3cc(OC)ccc3c2)n1 [Compound 23, N-(2-methoxyethyl)-4-(6-methoxy-4-morpholin-4-yl-2-naphthyl)pyrimidin-2-amine] | 98% | 91%
8 | COc1ccc2cc(-c3ccnc(NC4CCN(Cc5ccccc5)CC4)n3)cc(N3CCOCC3)c2c1 [Compound 24, N-(1-benzylpiperidin-4-yl)-4-(6-methoxy-4-morpholin-4-yl-2-naphthyl)pyrimidin-2-amine] | 97% | 95%
9 | COc1ccc2cc(-c3ccnc(NCc4ccccn4)n3)cc(N3CCOCC3)c2c1 [Compound 25, 4-(6-methoxy-4-morpholin-4-yl-2-naphthyl)-N-(pyridin-2-ylmethyl)pyrimidin-2-amine] | 82% | 74%
10 | COc1ccc2cc(-c3ccnc(NC4CC(C)(C)N(C)C(C)(C)C4)n3)cc(N3CCOCC3)c2c1 [Compound 26, 4-(6-methoxy-4-morpholin-4-yl-2-naphthyl)-N-(1,2,2,6,6-pentamethylpiperidin-4-yl)pyrimidin-2-amine] | 92% | 98%
11 | COc1ccc(CNc2nccc(-c3cc(N4CCOCC4)c4cc(OC)ccc4c3)n2)cc1 [Compound 28, N-(4-methoxybenzyl)-4-(6-methoxy-4-morpholin-4-yl-2-naphthyl)pyrimidin-2-amine] | 98% | 99%
12 | COc1ccc2cc(-c3ccnc(NCCN4CCCC4)n3)cc(N3CCOCC3)c2c1 [Compound 29, 4-(6-methoxy-4-morpholin-4-yl-2-naphthyl)-N-(2-pyrrolidin-1-ylethyl)pyrimidin-2-amine] | 81% | 76%
13 | COc1ccc2cc(-c3ccnc(NCC(C)(C)CN(C)C)n3)cc(N3CCOCC3)c2c1 [Compound 30, N′-[4-(6-methoxy-4-morpholin-4-yl-2-naphthyl)pyrimidin-2-yl]-N,N,2,2-tetramethylpropane-1,3-diamine] | 63% | 78%
14 | CCN(CC)CCCN1CCN(CC(=O)Nc2cc(-c3ccnc(NC)n3)cc3ccc(OC)cc23)CC1 [Compound 36, 2-{4-[3-(diethylamino)propyl]piperazin-1-yl}-N-{7-methoxy-3-[2-(methylamino)pyrimidin-4-yl]-1-naphthyl}acetamide] | 87% | 92%
15 | CNc1nccc(-c2cc(NC(=O)CN3CCN(CCO)CC3)c3cc(OC)ccc3c2)n1 [Compound 38, 2-[4-(2-hydroxyethyl)piperazin-1-yl]-N-{7-methoxy-3-[2-(methylamino)pyrimidin-4-yl]-1-naphthyl}acetamide] | 98% | 98%
16 | CNc1nccc(-c2cc(NC(=O)CN3CCN(c4ncncn4)CC3)c3cc(OC)ccc3c2)n1 [Compound 40, N-{7-methoxy-3-[2-(methylamino)pyrimidin-4-yl]-1-naphthyl}-2-[4-(1,3,5-triazin-2-yl)piperazin-1-yl]acetamide] | 54% | 40%
17 | CNc1nccc(-c2cc(NC(=O)CN3CCN(CC4CCN(C)CC4)CC3)c3cc(OC)ccc3c2)n1 [Compound 41, N-{7-methoxy-3-[2-(methylamino)pyrimidin-4-yl]-1-naphthyl}-2-{4-[(l-methylpiperidin-4-yl)methyl]piperazin-1-yl}acetamide] | 66% | 71%
18 | CNc1nccc(-c2cc(NC(=O)CN3CCC(N4CCN(C)CC4)CC3)c3cc(OC)ccc3c2)n1 [Compound 45, N-{7-methoxy-3-[2-(methylamino)pyrimidin-4-yl]-1-naphthyl}-2-[4-(4-methylpiperazin-1-yl)piperidin-1-yl]acetamide] | 98% | 99%
19 | CNc1nccc(-c2cc(NC(=O)CNc3ccncc3)c3cc(OC)ccc3c2)n1 [Compound 56, N-{7-methoxy-3-[2-(methylamino)pyrimidin-4-yl]-1-naphthyl}-N~2~-pyridin-4-ylglycinamide] | – | 50%
20 | CNc1nccc(-c2cc(NC(=O)CNCCCN3CCN(C)CC3)c3cc(OC)ccc3c2)n1 [Compound 69, N-{7-methoxy-3-[2-(methylamino)pyrimidin-4-yl]-1-naphthyl}-N~2~-[3-(4-methylpiperazin-1-yl)propyl]glycinamide] | – | 40%
21 | CNc1nccc(-c2cc(NC(=O)CN3CCN(c4ccncc4)CC3)c3cc(OC)ccc3c2)n1 [Compound 70, N-{7-methoxy-3-[2-(methylamino)pyrimidin-4-yl]-1-naphthyl}-2-(4-pyridin-4-ylpiperazin-1-yl)acetamide] | – | 37%
22 | CNc1nccc(-c2cc(NC(=O)CN3CCN(CCCN4CCOCC4)CC3)c3cc(OC)ccc3c2)n1 [Compound 77, N-{7-methoxy-3-[2-(methylamino)pyrimidin-4-yl]-1-naphthyl}-2-[4-(3-morpholin-4-ylpropyl)piperazin-1-yl]acetamide] | – | 41%
23 | COc1ccc2cc(-c3ccnc(NCc4cccc(C(F)(F)F)c4)n3)cc(NC(=O)OC(C)(C)C)c2c1 [Compound 90, tert-butyl [7-methoxy-3-(2-{[3-(trifluoromethyl)benzyl]amino}pyrimidin-4-yl)-1-naphthyl]carbamate] | – | 43%
24 | COc1ccc2cc(-c3ccnc(NCCc4ccc(OC)c(OC)c4)n3)cc(NC(=O)OC(C)(C)C)c2c1 [Compound 95, tert-butyl [3-(2-{[2-(3,4-dimethoxyphenyl)ethyl]amino}pyrimidin-4-yl)-7-methoxy-1-naphthyl]carbamate] | – | 39%
